In patent US10174016B2 (BAYER AKTIENGESELLSCHAFT, priority 2014, dated 2019):
Read-outs that look alike come from different tables or passages of the source.

Key:
[1] = biological target: human P2X3 receptor (Homo sapiens (Human), UniProt P56373); test: Intracellular calcium measurement (FLIPR, Fluo-4) of antagonist activity at human P2X3 receptors; assay type: cell-based; conditions: read-out: hP2X3 IC50
Procedure, shortened: (§1)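 Cells expressing human P2X3 or P2X2/3, loaded with Fluo-4, preincubated 30 min at 37° C. with compound (1% DMSO final), then challenged with α,β-Me-ATP at its EC80. Peak FLIPR fluorescence over 90 sec gave % response; IC50, maximal inhibition and Hill slope from triplicates.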

[2] = biological target: human P2X2/3 receptor (Homo sapiens (Human), UniProt P56373+Q9UBL9); test: Intracellular calcium measurement (FLIPR, Fluo-4) of antagonist activity at human P2X2/3 receptors; assay type: cell-based; conditions: human P2X2/3, FLIPR calcium assay, agonist α,β-Me-ATP; read-out: hP2X2/3 IC50
Chain of human P2X2/3 receptor (P56373 whole entry): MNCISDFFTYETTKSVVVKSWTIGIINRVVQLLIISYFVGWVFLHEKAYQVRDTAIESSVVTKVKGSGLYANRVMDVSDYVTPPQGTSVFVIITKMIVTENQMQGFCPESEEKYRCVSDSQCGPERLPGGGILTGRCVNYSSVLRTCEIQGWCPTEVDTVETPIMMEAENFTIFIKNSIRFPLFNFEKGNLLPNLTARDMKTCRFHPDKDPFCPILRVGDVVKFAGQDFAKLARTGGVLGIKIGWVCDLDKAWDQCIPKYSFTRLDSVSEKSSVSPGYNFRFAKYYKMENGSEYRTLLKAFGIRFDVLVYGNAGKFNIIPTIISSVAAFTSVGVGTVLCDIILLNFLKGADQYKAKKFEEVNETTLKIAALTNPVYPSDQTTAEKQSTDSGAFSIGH
Chain of human P2X2/3 receptor (Q9UBL9 whole entry): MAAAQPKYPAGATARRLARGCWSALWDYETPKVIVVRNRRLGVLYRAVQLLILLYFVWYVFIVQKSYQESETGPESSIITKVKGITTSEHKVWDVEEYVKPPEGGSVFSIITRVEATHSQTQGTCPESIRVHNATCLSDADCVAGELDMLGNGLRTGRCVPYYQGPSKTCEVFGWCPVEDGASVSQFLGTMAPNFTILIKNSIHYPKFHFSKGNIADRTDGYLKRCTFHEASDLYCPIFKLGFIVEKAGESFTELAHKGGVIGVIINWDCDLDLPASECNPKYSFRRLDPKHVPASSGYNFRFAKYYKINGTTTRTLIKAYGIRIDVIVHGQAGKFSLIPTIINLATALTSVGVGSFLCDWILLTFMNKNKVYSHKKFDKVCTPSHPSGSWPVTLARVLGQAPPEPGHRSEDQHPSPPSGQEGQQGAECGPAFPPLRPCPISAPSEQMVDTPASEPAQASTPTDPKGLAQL
Procedure, shortened: as §1

[3] = human P2X3, FLIPR calcium assay, agonist α,β-Me-ATP

Chain of human P2X3 receptor (P56373 whole entry): as the sequence (P56373 whole entry) above

Compound	IC50 [1, 3] [nM]	IC50 [2] [nM]	IC50 [1] [nM]
Cc1ccc([C@@H](C)NC(=O)c2cc(OCC3CCOCC3)cc(-c3ncc(C)s3)c2)nn1 [Example 99, N-[(1R)-1-(6-Methylpyridazin-3-yl)ethyl]-3-(5-methyl-1,3-thiazol-2-yl)-5-(tetrahydro-2H-pyran-4-ylmethoxy)benzamide]	2	27	–
Cc1cc(Oc2cc(C(=O)N[C@H](C)c3ccc(C)nn3)cc(-c3ncc(C)s3)c2)ccn1 [Example 100, N-[(1R)-1-(6-Methylpyridazin-3-yl)ethyl]-3-[(2-methylpyridin-4-yl)oxy]-5-(5-methyl-1,3-thiazol-2-yl)benzamide]	6	16	–
Cc1cc(Oc2cc(C(=O)NCc3ccc(C)nn3)cc(-c3ncc(C)s3)c2)ccn1 [Example 101, N-[(6-Methylpyridazin-3-yl)methyl]-3-[(2-methylpyridin-4-yl)oxy]-5-(5-methyl-1,3-thiazol-2-yl)benzamide]	15	60	–
Cc1cnc([C@@H](C)NC(=O)c2cc(Oc3ccnc(C)c3)cc(-c3ncc(C)s3)c2)cn1 [Example 102, N-[(1R)-1-(5-Methylpyrazin-2-yl)ethyl]-3-[(2-methylpyridin-4-yl)oxy]-5-(5-methyl-1,3-thiazol-2-yl)benzamide]	10	57	–
Cc1cc(Oc2cc(C(=O)N[C@H](C)c3cnc(C(F)(F)F)nc3)cc(-c3ncc(C)s3)c2)ccn1 [Example 103, 3-[(2-Methylpyridin-4-yl)oxy]-5-(5-methyl-1,3-thiazol-2-yl)-N-{(1R)-1-[2-(trifluoromethyl)pyrimidin-5-yl]ethyl}benzamide]	2	14	–
Cc1cnc(CNC(=O)c2cc(Oc3ccnc(C)c3)cc(-c3ncc(C)s3)c2)cn1 [Example 104, N-[(5-Methylpyrazin-2-yl)methyl]-3-[(2-methylpyridin-4-yl)oxy]-5-(5-methyl-1,3-thiazol-2-yl)benzamide]	51	377	–
Cc1cc(Oc2cc(C(=O)N[C@H](C)c3cnc(C)nc3)cc(-c3ncc(C)s3)c2)ccn1 [Example 106, 3-[(2-methylpyridin-4-yl)oxy]-N-[(1R)-1-(2-methylpyrimidin-5-yl)ethyl]-5-(5-methyl-1,3-thiazol-2-yl)benzamide]	16	41	–
Cc1ccc([C@@H](C)NC(=O)c2cc(Oc3ccnc(C)c3)cc(-c3ncc(C)s3)c2)cn1 [Example 107, N-[(1R)-1-(6-methylpyridin-3-yl)ethyl]-3-[(2-methylpyridin-4-yl)oxy]-5-(5-methyl-1,3-thiazol-2-yl)benzamide]	9	17	–
Cc1cnc([C@@H](C)NC(=O)c2cc(Oc3nccs3)cc(-c3ncc(C)s3)c2)cn1 [Example 112, N-[(1R)-1-(5-Methylpyrazin-2-yl)ethyl]-3-(5-methyl-1,3-thiazol-2-yl)-5-(1,3-thiazol-2-yloxy)benzamide]	–	772	61

Further lines, with some results ahead:

IC50 [1, 3] [nM]	IC50 [2] [nM]	Compound	IC50 [1] [nM]
11	83	Cc1ccc(Oc2cc(C(=O)N[C@H](C)c3cnc(C(F)(F)F)nc3)cc(-c3ncc(C)s3)c2)cn1 [Example 108, 3-[(6-Methylpyridin-3-yl)oxy]-5-(5-methyl-1,3-thiazol-2-yl)-N-{(1R)-1-[2-(trifluoromethyl)pyrimidin-5-yl]ethyl}benzamide]	–
235	2410	Cc1cnc([C@@H](C)NC(=O)c2cc(Oc3nnc(C)s3)cc(-c3ncc(C)s3)c2)cn1 [Example 109, N-[(1R)-1-(5-Methylpyrazin-2-yl)ethyl]-3-[(5-methyl-1,3,4-thiadiazol-2-yl)oxy]-5-(5-methyl-1,3-thiazol-2-yl)benzamide]	–
114	1450	Cc1ccc([C@@H](C)NC(=O)c2cc(Oc3nnc(C)s3)cc(-c3ncc(C)s3)c2)nn1 [Example 110, N-[(1R)-1-(6-Methylpyridazin-3-yl)ethyl]-3-[(5-methyl-1,3,4-thiadiazol-2-yl)oxy]-5-(5-methyl-1,3-thiazol-2-yl)benzamide]	–
16	380	Cc1cnc(-c2cc(Oc3nnc(C)s3)cc(C(=O)N[C@H](C)c3cnc(C(F)(F)F)nc3)c2)s1 [Example 111, 3-[(5-Methyl-1,3,4-thiadiazol-2-yl)oxy]-5-(5-methyl-1,3-thiazol-2-yl)-N-[(1R)-1-[2-(trifluoromethyl)pyrimidin-5-yl]ethyl]benzamide]	–
43	387	Cc1ccc([C@@H](C)NC(=O)c2cc(Oc3nccs3)cc(-c3ncc(C)s3)c2)nn1 [Example 113, N-[(1R)-1-(6-Methylpyridazin-3-yl)ethyl]-3-(5-methyl-1,3-thiazol-2-yl)-5-(1,3-thiazol-2-yloxy)benzamide]	–
38	414	Cc1ccc([C@@H](C)NC(=O)c2cc(Oc3nccs3)cc(-c3ncc(C)s3)c2)cn1 [Example 114, N-[(1R)-1-(6-Methylpyridin-3-yl)ethyl]-3-(5-methyl-1,3-thiazol-2-yl)-5-(1,3-thiazol-2-yloxy)benzamide]	–
15	187	COC(C)(C)COc1cc(C(=O)N[C@H](C)c2ccc(Cl)cn2)cc(-c2ncc(Cl)s2)c1 [Example 115, N-[(1R)-1-(5-Chloropyridin-2-yl)ethyl]-3-(5-chloro-1,3-thiazol-2-yl)-5-(2-methoxy-2-methylpropoxy)benzamide]	–
210	6430	COC(C)(C)COc1cc(C(=O)N[C@H](C)c2cnc(C(F)(F)F)nc2)cc(-c2ncc(Cl)s2)c1 [Example 116, 3-(5-Chloro-1,3-thiazol-2-yl)-5-(2-methoxy-2-methylpropoxy)-N-{(1R)-1-[2-(trifluoromethyl)pyrimidin-5-yl]ethyl}benzamide]	–
36	883	COC(C)(C)COc1cc(C(=O)N[C@H](C)c2cnc(C)cn2)cc(-c2ncc(Cl)s2)c1 [Example 117, 3-(5-Chloro-1,3-thiazol-2-yl)-5-(2-methoxy-2-methylpropoxy)-N-[(1R)-1-(5-methylpyrazin-2-yl)ethyl]benzamide]	–
198	1130	Cc1ccc(CNC(=O)c2cc(OCC3CCOCC3)cc(-c3ncc(C(F)(F)F)s3)c2)nn1 [Example 118, N-[(6-Methylpyridazin-3-yl)methyl]-3-(tetrahydro-2H-pyran-4-ylmethoxy)-5-[5-(trifluoromethyl)-1,3-thiazol-2-yl]benzamide]	–
24	190	Cc1ccc(CNC(=O)c2cc(OCC3CCOCC3)cc(-c3ncc(C4CCC4)s3)c2)nn1 [Example 119, 3-(5-Cyclobutyl-1,3-thiazol-2-yl)-N-[(6-methylpyridazin-3-yl)methyl]-5-(tetrahydro-2H-pyran-4-ylmethoxy)benzamide]	–
14	104	C[C@@H](NC(=O)c1cc(OCC2CCOCC2)cc(-c2ncc(C3CCC3)s2)c1)c1cnc(C(F)(F)F)nc1 [Example 120, 3-(5-Cyclobutyl-1,3-thiazol-2-yl)-5-(tetrahydro-2H-pyran-4-ylmethoxy)-N-{(1R)-1-[2-(trifluoromethyl)pyrimidin-5-yl]ethyl}benzamide]	–
106	1170	Cc1ccc(CNC(=O)c2cc(OC[C@H]3CCOC3)cc(-c3ncc(C4CCC4)s3)c2)nn1 [Example 122, 3-(5-Cyclobutyl-1,3-thiazol-2-yl)-N-[(6-methylpyridazin-3-yl)methyl]-5-[(3S)-tetrahydrofuran-3-ylmethoxy]benzamide]	–
